Results taken from the NIST ThermoML archive (doi:10.1021/je0340250).

Experiment: xn = mol fraction of the nth substance listed

O [water] + CN1CCOCC1
x2 = 0
Settings	surface tension liquid-gas [mN/m]
298.15 K	72.01
308.15 K	70.41
318.15 K	68.79
328.15 K	67.17

C1COCCN1 [tetrahydro-1,4-oxazine] + O
surface tension liquid-gas [mN/m]
Settings	298.15 K	308.15 K	318.15 K	328.15 K
x1 = 0.0125	68.36	66.65	64.55	62.68
x1 = 0.0155	67.66	65.85	66.74	61.8
x1 = 0.0251	65.41	63.27	61.14	59
x1 = 0.0496	62.08	60.05	58.03	56
x1 = 0.06	60.89	58.94	56.98	55.03
x1 = 0.0735	59.6	57.66	55.72	53.78
x1 = 0.0793	59.43	57.69	55.63	53.65
x1 = 0.0854	58.94	56.56	54.18	51.8
x1 = 0.0991	57.71	55.42	53.12	50.83
x1 = 0.2005	51.23	49.14	47.05	44.96
x1 = 0.2973	47.24	45.52	43.8	42.09
x1 = 0.3969	44.64	43.2	41.75	40.31
x1 = 0.4996	43.06	41.7	40.33	38.97
x1 = 0.5977	41.55	40.25	38.96	37.66
x1 = 0.7005	40.33	39.12	37.91	36.7
x1 = 0.8034	39.3	38.1	36.9	35.69
x1 = 0.9096	38.38	37.16	35.95	34.73
x1 = 1	37.68	36.46	35.24	34.02
